Results as given in US12226385B2, “Synergistic composition for activating intracellular secondary messenger(cAMP) pathway” (CELAGENEX RESEARCH (INDIA) PRIVATE LTD., priority 2021, dated 2025).
Read-outs that look alike come from different tables or passages of the source.

Assays:
experimental rat [1] = assay: Elevated Plus Maze (EPM) test in rats; type: in vivo
Experimental: (§1) Evaluation of physical parameters of the test substances in experimental rat.
(§2) • Species: Rat • Strain: Wister • Sex: Male • No. of animals: 48 Animals (n=6 per group) • Body weight: 180-200 gm Group, Designation and Dose Levels:
(§3) The tests were performed by the known technique.
(§4) The following behavioural test were conducted at the end of the treatment, • Force Swim Test • Open Field Test • Behavioural at Novel Object Test • Behaviour at Elevated Plus Maze (EPM) test

[2] = system: CREB (Cyclic AMP Response Element-Binding Protein); assay: Estimation of CREB (Cyclic AMP Response Element-Binding Protein); type: cell-based, Rat; conditions: doses per Table 1
Experimental: g. Estimation of CREB (Cyclic AMP Response Element-Binding Protein) nM Results:
(§5) The estimation of modulatory effect of test substance on biochemical parameters were analysed in C6 (Rat Glioblastoma) cell. […] This indicated the increase in synapse number and neuroplasticity.

experimental rat [3] = assay: Novel Object Test in rats; type: in vivo
Experimental: as §1, §2, §3, §4
Table 5 represent behavioural at novel object test where latency time spent towards the novel objects indicated better memory and learning ability. This test is based on the spontaneous tendency of rats to spend more time exploring a novel object than a familiar one.

BDNF = assay: Estimation of BDNF levels in C6 cells (Rat BDNF ELISA kit); type: cell-based; conditions: C6 (Rat Glioblastoma) cells, 28 hours of incubation, doses per Table 1
Experimental: To perform the assay, cells were seeded in 24-well plates containing 500 μL complete Ham's F-12 with 4.5 g/L glucose. After 24 h, the confluent monolayer of cells was firstly incubated with the corresponding inhibitor compound for 1-4 h (based on standardization) minutes in the incubator at 37° C. and 5% CO2. Then, the selected dose of test substances and positive control was added to the cells. After 28 hours of incubation, the cell supernatants from respective treatment wells were collected and assayed to estimate the levels of BDNF using a commercially available Rat BDNF ELISA kit.

experimental rat [4] = assay: Open Field Test in rats; type: in vivo
Experimental: as §1, §2, §3, §4

experimental rat [5] = assay: Force Swim Test in rats; type: in vivo; conditions: male Wister rats, n=6, end of treatment, doses per Table 3
Experimental: as §1, §2, §3, §4

cAMP = assay: Modulatory effect on cAMP levels in C6 cells (ELISA kit); type: cell-based; conditions: C6 (Rat Glioblastoma) cells, 28 hours of incubation, doses per Table 1
Experimental: To assess the effectiveness of test substance on modulation of cAMP and evaluation of BDNF in Rat Glioblastoma cells.
The cytotoxicity profiling of the test substance was carried out to find the safe dose on C6 cells. […] The levels of cAMP in the cell lysate were measured using a suitable ELISA kit to infer the modulatory effect.
10 mg of test substance was separately dissolved in 100 μL of DMSO and volume was made up with Ham's F-12 medium supplemented with 2% inactivated FBS to obtain a stock solution of 10 mg/mL concentration and sterilized by 0.22μ syringe filtration. Serial two-fold dilutions were prepared from this stock solution for further studies.
C6 (Rat Glioblastoma) cell line was procured from NCCS, India. Stock cells was cultured in Ham's F-12 medium supplemented with 10% inactivated Fetal Bovine Serum (FBS), penicillin (100 IU/ml), streptomycin (100 μg/ml) and amphotericin B (5 μg/ml) in a humidified atmosphere of 5% CO2 at 37° C. until confluent. Passaging was done by centrifuging the cells, followed by seeding the pellet into a tissue culture vessel. The stock cultures were grown in 25 cm2 culture flasks and all experiments will be carried out in 96 microtitre plates (Tarsons India Pvt. Ltd., Kolkata, India).
To perform the assay, cells were seeded in 24-well plates containing […] complete Ham's F-12 with 4.5 g/L glucose. […] Then, the selected dose of test substances and positive control (Clozapine) was added to the cells. After 28 hours of incubation, the cell supernatants from respective treatment wells were collected and assayed to estimate the levels of cyclic AMP using a commercially available kit.

ALCAR = assay: Estimation of ALCAR plasma level (ALCAR ELISA kit); type: cell-based, Rat; conditions: doses per Table 1
Experimental: f. Estimation of ALCAR Plasma Level (Nmol/Ml): Assay Performed by ALCAR ELISA Kit
as §5

[6] = system: Adult Patients with Major Depressive Disorder; assay: Clinical study, serum Acetyl-L carnitine (ALCAR) levels; type: in vivo, human
Source text: (§6) A double-blind, Fixed-dose study, 80 participants (males and females) with major depression were randomly assigned to receive test samples. Age eligibility for study include 18 Years to 65 Years (Adult, Older Adult)
To measure serum Acetyl-L carnitine levels pre-treatment and end of 12 weeks and correlate it with severity of depression and treatment outcomes.

[7] = system: Adult Patients with Major Depressive Disorder; assay: Double-blind, fixed-dose clinical study, Hamilton Rating Scale for Depression (HAM-D); type: in vivo, human
Experimental: Composition-1—(3R)-3-acetyloxy-4-(trimethylazaniumyl)butanoate+N-4-Aminobutylguanidine—500 mg+250 mg
as §6
Participants were evaluated at visits at screening, baseline/randomization, and 4, 8, and 12 weeks after randomization. Masking—Triple (Participant, Investigator, Outcomes Assessor); Parallel Assignment
Pre-assignment Details: A one-week single-blind placebo period was completed prior to randomization.
Change From Baseline in Hamilton Rating Scale for Depression (HAM-D) at Week 4, 8 and 12 [Time Frame: Change from baseline in HAM-D at week 4, 8 and 12]
The HAMD is a clinician-rated 21-item scale was used to rate the patient's depressive state. It was also used to identify obsessive-compulsive, genital, and somatic symptoms, as well as diurnal variation in the presence of symptoms. Each item was scored on a 1, 2, 3, 4 or 5-point Likert scale. A score of 0 indicated the absence of symptoms, and a score of 2, 3 or 4 indicated symptoms of maximum severity. The total score range is 0 to 62 (higher score indicates a greater depressive state).

[8] = male Wister rats, n=6, end of treatment, doses per Table 3
[9] = pretreatment, whole arm (Table 8)

CC(=O)O[C@H](CC(=O)[O-])C[N+](C)(C)C [Group 4, (3R)-3-acetyloxy-4-(trimethylazaniumyl)butanoate]
Number of entries in to open arm (experimental rat [1]; [8]): 08 times
Number of times head dipping (experimental rat [1]; [8]): 12 times
Number of times rearing (experimental rat [1]; [8]): 18 times
Time Spent Rearing (experimental rat [1]; [8]): 15%
Time in the open arms (experimental rat [1]; [8]): 12%
time spent head dipping (experimental rat [1]; [8]): 11%
CREB [2]: 1.0 nM
Latency to reach Novel Object (experimental rat [3]; [8]): 35 s
Number of times sniffing the object (experimental rat [3]; [8]): 49 times
Time Spent sniffing the object (experimental rat [3]; [8]): 08%
BDNF (BDNF): 88 ng/L
Open Field Test Distance walked in corners (experimental rat [4]; [8]): 1860 cm
Open Field Test Latency to reach center (experimental rat [4]; [8]): 27 s
Force Swim Test Immobility (experimental rat [5]): 55 s
cAMP (cAMP): 4.8 pmol/µL
Plasma ALCAR (ALCAR): 25 nmol/mL

CN1CCN(C2=Nc3cc(Cl)ccc3Nc3ccccc32)CC1 [Clozapine]
Number of entries in to open arm (experimental rat [1]; [8]): 10 times
Number of times head dipping (experimental rat [1]; [8]): 18 times
Number of times rearing (experimental rat [1]; [8]): 25 times
Time Spent Rearing (experimental rat [1]; [8]): 19%
Time in the open arms (experimental rat [1]; [8]): 15%
time spent head dipping (experimental rat [1]; [8]): 21%
CREB [2]: 0.5 nM
Latency to reach Novel Object (experimental rat [3]; [8]): 03 s
Number of times sniffing the object (experimental rat [3]; [8]): 62 times
Time Spent sniffing the object (experimental rat [3]; [8]): 13%
BDNF (BDNF): 77 ng/L
Open Field Test Distance walked in corners (experimental rat [4]; [8]): 2200 cm
Open Field Test Latency to reach center (experimental rat [4]; [8]): 38 s
Force Swim Test Immobility (experimental rat [5]): 189 s
cAMP (cAMP): 4.1 pmol/µL
Plasma ALCAR (ALCAR): 21 nmol/mL

N=C(N)NCCCCN [Group 5, N-4-aminobutylguanidine]
Time Spent Rearing (experimental rat [1]): 13%
time spent head dipping (experimental rat [1]): 10%
Number of entries in to open arm (experimental rat [1]; [8]): 07 times
Number of times head dipping (experimental rat [1]; [8]): 11 times
Number of times rearing (experimental rat [1]; [8]): 16 times
Time in the open arms (experimental rat [1]; [8]): 11%
CREB [2]: 1.2 nM
Time Spent sniffing the object (experimental rat [3]): 09%
Latency to reach Novel Object (experimental rat [3]; [8]): 36 s
Number of times sniffing the object (experimental rat [3]; [8]): 47 times
BDNF (BDNF): 91 ng/L
Open Field Test Distance walked in corners (experimental rat [4]): 1820 cm
Open Field Test Latency to reach center (experimental rat [4]): 25 s
Force Swim Test Immobility (experimental rat [5]): 59 s
cAMP (cAMP): 5.1 pmol/µL
Plasma ALCAR (ALCAR): 22 nmol/mL

CN(C)CCC[C@@]1(c2ccc(F)cc2)OCc2cc(C#N)ccc21 [Escitalopram]
Number of entries in to open arm (experimental rat [1]; [8]): 07 times
Number of times head dipping (experimental rat [1]; [8]): 12 times
Number of times rearing (experimental rat [1]; [8]): 18 times
Time Spent Rearing (experimental rat [1]; [8]): 16%
Time in the open arms (experimental rat [1]; [8]): 11%
time spent head dipping (experimental rat [1]; [8]): 12%
CREB [2]: 0.8 nM
Mean Serum ALCAR, Non-Responder group ([6]; Baseline): 0.94 µg/mL
Mean Serum ALCAR, Remission group ([6]; Baseline): 1.20 µg/mL
Mean Serum ALCAR, Responder group ([6]; Baseline): 0.91 µg/mL
Mean Serum ALCAR, Non-Responder group ([6]; Week-12): 0.99 µg/mL
Mean Serum ALCAR, Remission group ([6]; Week-12): 3.53 µg/mL
Mean Serum ALCAR, Responder group ([6]; Week-12): 2.19 µg/mL
Mean serum ALCAR at pretreatment [6, 9]: 1.01 microgram/ml
Latency to reach Novel Object (experimental rat [3]; [8]): 32 s
Number of times sniffing the object (experimental rat [3]; [8]): 48 times
Time Spent sniffing the object (experimental rat [3]; [8]): 09%
Mean HAM-D Score ([7]; Baseline): 26.2
Mean HAM-D Score ([7]; Week-4): 25.72
Non-Responder Rate ([7]; Week-4): (100%)
Non-Responder Rate, patients/total ([7]; Week-4): 40/40
Remission Rate (HAM-D Score <7) ([7]; Week-4): (0%)
Remission Rate (HAM-D Score <7), patients/total ([7]; Week-4): 0/40
Responder Rate (50% Reduction from baseline) ([7]; Week-4): (0%)
Responder Rate (50% Reduction from baseline), patients/total ([7]; Week-4): 0/40
Mean HAM-D Score ([7]; Week-8): 21.45
Non-Responder Rate ([7]; Week-8): (97.5%)
Non-Responder Rate, patients/total ([7]; Week-8): 39/40
Remission Rate (HAM-D Score <7) ([7]; Week-8): (0%)
Remission Rate (HAM-D Score <7), patients/total ([7]; Week-8): 0/40
Responder Rate (50% Reduction from baseline) ([7]; Week-8): (2.5%)
Responder Rate (50% Reduction from baseline), patients/total ([7]; Week-8): 1/40
Mean HAM-D Score ([7]; Week-12): 13.75
Non-Responder Rate ([7]; Week-12): (52.5%)
Non-Responder Rate, patients/total ([7]; Week-12): 21/40
Remission Rate (HAM-D Score <7) ([7]; Week-12): (17.5%)
Remission Rate (HAM-D Score <7), patients/total ([7]; Week-12): 7/40
Responder Rate (50% Reduction from baseline) ([7]; Week-12): (30%)
Responder Rate (50% Reduction from baseline), patients/total ([7]; Week-12): 12/40
Non-Responder Remission Rate in Female Subgroup ([7]; Week-12, female subgroup): (75%)
Non-Responder Remission Rate in Female Subgroup, patients/total ([7]; Week-12, female subgroup): 21/28
Responder Remission Rate in Female Subgroup ([7]; Week-12, female subgroup): (25%)
Responder Remission Rate in Female Subgroup, patients/total ([7]; Week-12, female subgroup): 7/28
Mean HAM-D Score at pretreatment [7, 9]: 26.2
Open Field Test Distance walked in corners (experimental rat [4]; [8]): 1900 cm
Open Field Test Latency to reach center (experimental rat [4]; [8]): 26 s
Force Swim Test Immobility (experimental rat [5]): 68 s
cAMP (cAMP): 6.0 pmol/µL
Plasma ALCAR (ALCAR): 23 nmol/mL
